{"source": "patent US9980976B2", "about": "“Use of REDD1 inhibitors to dissociate therapeutic and adverse atrophogenic effects of glucocorticoid receptor agonists” (Northwestern University, priority 2015, dated 2018)", "key": {"FKBP51 and GILZ": {"system": "FKBP51 and GILZ", "assay": "Q-PCR analysis of GR target genes FKBP51 and GILZ in HaCaT and CEM cells", "type": "cell-based, human", "conditions": "FA 1 uM 24 h", "experimental": "FIG. 13. Rapamycin inhibits GR transactivation. A, B. Q-PCR analysis of FKBP51 and GILZ expression in HaCaT (A) and CEM (B) cells. Cells were pretreated with solvent or Rapa (1 uM)×6 hrs and treated with solvent (Control) or FA (1 uM) for 24 h. A,B. Q-PCR results were normalized to the expression of the housekeeping Rp127 gene, and presented as fold of change compared to control cells. The means+/−SD calculated for three individual RNA samples/condition. a—Statistically significant difference (P<0.05) compared to control; b—Statistically significant differences (P<0.05) compared to FA treatment. C. Inhibitory effect of rapamycin on GRE.Luciferase reporter. […] The means+SD were calculated for three individual wells/group in one representative experiment (out of three experiments). a—Statistically significant differences (P<0.05) in comparison to vehicle treatment; b—Statistically significant differences (P<0.05) in comparison to FA treatment.\nTotal RNA from murine epidermis, whole human skin, and cell cultures was isolated with RiboPure kit (Ambion, Life Technologies, Grand Island, N.Y., USA). […] The gene expression was assessed using semi-quantitative two-step RT-PCR and quantitative Q-PCR. […] For semi-quantitative PCRs, Taq DNA polymerase (Promega) was used, and PCR products were separated on 1.5% agarose gel and visualized using automated imaging system (Bio-Rad, Hercules, Calif., USA). […]"}, "[1]": {"system": "glucocorticoid-responsive genes in murine epidermis", "assay": "Genome-wide expression profiling of murine epidermis (microarray, Q-PCR validation)", "type": "in vivo, mouse", "conditions": "FA", "experimental": "To investigate the global role of REDD1 in GR signaling, we performed genome-wide expression profiling of the epidermis of REDD1 and wild-type mice treated with vehicle (control) or FA using Illumina mouse whole-genome gene array (GEO Submission GSE59151). Gene expression was measured 24 h post-FA application, when both TA and TR are usually fully developed (Wu et al, 2004). Differential expression was identified based on the adjusted P-value threshold of 0.05.\nRNA samples were checked for quality and integrity with the Agilent 2100 bioanalyzer and used for microarray analysis. RNA amplification, labeling, and hybridization with the Mouse Whole-Genome Gene Expression BeadChips MouseRef-8 v2.0 (Illumina) were performed at the Genomics Core Facility at the Center for Genetic Medicine at Northwestern University according to Illumina protocols.\nMicroarray processing was performed using the Limma package (Smyth, 2005), using the neqc function to perform background subtraction using the negative control probes, and quantile normalization using both positive and negative control probes. Differentially expressed probes were identified using the linear model implemented in Limma, applying an adjusted P-value threshold of 0.05. Q-PCR and microarray based gene expression values were compared using linear Pearson correlation.\nGene ontology analysis was performed using the DAVID Bioinformatics resource tool (Huang et al, 2009a,b), submitting differentially expressed probes from each experiment, against the probe background of MouseRef 8. DAVID performs a hypergeometric test to identify overrepresented GO terms in a list of differentially expressed probes. Results are presented for categories with greater than or equal to threefold enrichment and P=0.01."}, "mTOR": {"system": "mTOR", "assay": "mTOR activity in mouse skin (phosphorylation of 4E-BP1 and rpS6, phospho-mTOR Ser2448)", "type": "in vivo", "conditions": "B6D2 mice, topical FA", "text": "Because REDD1 is a known inhibitor of mTOR signaling (Sofer et al, 2005; Wang et al, 2006; DeYoung et al, 2008; Shimizu et al, 2011), we tested whether FA inhibits mTOR activity in the skin. In previous studies, mTOR activity has been monitored by phosphorylation of its major substrates, 4E-BP1 (eukaryotic initiation factor 4E binding protein 1) and S6K1 (ribosomal p70/S6 kinase 1) as well as ribosomal protein S6 (rpS6), a substrate of S6K1 (Checkley et al, 2011). As basal level of S6K1 phosphorylation was low in skin of B6D2 mice, we used 4E-BP1 and rpS6 as preferred markers. […] Moreover, there was an inverse correlation between phosphorylation of mTOR targets and REDD1 expression in the epidermis. By the time when REDD1 expression reached its peak (8 h after 1st and 2nd FA applications), the repression of mTOR activity by FA was most pronounced (FIGS. 2A, B). We further confirmed this inverse correlation using immunostaining for REDD1 and active, phosphorylated at Ser2448 mTOR (FIG. 2A). […]"}}, "data": [{"smiles": "CC1(C)O[C@@H]2C[C@H]3[C@@H]4C[C@H](F)C5=CC(=O)C=C[C@]5(C)[C@@]4(F)[C@@H](O)C[C@]3(C)[C@]2(C(=O)CO)O1", "note": "[FA, fluocinolone acetonide]", "values": [{"measurement": "FKBP51 and GILZ expression", "setting": "FKBP51 and GILZ", "result": "strongly activated"}, {"measurement": "gene categories up-regulated (GO analysis)", "setting": "[1]; REDD1 KO keratinocytes", "result": "up-regulated genes related to autophagy, endosomes, and PI3K signaling"}, {"measurement": "Cd74 and H2-Ab1 expression (Q-PCR array validation)", "setting": "[1]; wild-type and REDD1 KO epidermis", "result": "similarly down-regulated"}, {"measurement": "gene categories inhibited (GO analysis)", "setting": "[1]; wild-type but not REDD1 KO skin", "result": "inhibited genes related to DNA replication"}, {"measurement": "mTOR activity in the skin", "setting": "mTOR", "result": "blocked mTOR activity"}]}]}
